{
  "source": "patent US5972953A",
  "about": "“Brain cell protective agent” (priority 1993, dated 1999)",
  "data": [
    {"system": "cultured nerve cells (cerebral cortex)", "experiment": "cells", "type": "cell-based, Wistar rat", "details": "Rattus norvegicus, Cerebral cortex neuron, 24 h, read-out: ED50", "units": {"EC50": "nM"}, "values": [
      {"smiles": "CN(C(=O)/C=C/c1cccc(F)c1)[C@@H]1CC[C@@]2(O)[C@H]3Cc4ccc(O)c5c4[C@@]2(CCN3CC2CC2)[C@H]1O5", "note": "[Compound 79, 17-cyclopropylmethyl-3,14β-dihydroxy-4,5α-epoxy-6β-(N-methyl-3-fluorocinnamamido)morphinan]", "EC50": 12200},
      {"smiles": "Cc1cccc(/C=C/C(=O)N(CC(C)C)[C@@H]2CC[C@@]3(O)[C@H]4Cc5ccc(O)c6c5[C@@]3(CCN4CC3CC3)[C@H]2O6)c1", "note": "[Compound 57, 17-cyclopropylmethyl-3,14β-dihydroxy-4,5α-epoxy-6β-(N-isobutyl-3-methylcinnamamido)morphinan]", "EC50": 660}
    ]},
    {"system": "cultured nerve cells (cerebral cortex)", "experiment": "cells", "type": "cell-based, Wistar rat", "details": "Rattus norvegicus, Cerebral cortex neuron; 10 mM glutamate, 24 hours at 37° C., LDH leakage; read-out: ED50 (the source's name)", "units": {"EC50": "nM"}, "values": [
      {"smiles": "CC(C)CN(Cc1ccccc1)[C@@H]1CC[C@@]2(O)[C@H]3Cc4ccc(O)c5c4[C@@]2(CCN3CC2CC2)[C@H]1O5", "note": "[Compound 7, 17-cyclopropylmethyl-3,14β-dihydroxy-4,5α-epoxy-6β-(N-isobutylbenzylamino)morphinan]", "EC50": 320},
      {"smiles": "CCCCOC(=O)N(C)[C@@H]1CC[C@@]2(O)[C@H]3Cc4ccc(O)c5c4[C@@]2(CCN3CC2CC2)[C@H]1O5", "note": "[Compound 48, 17-cyclopropylmethyl-3,14β-dihydroxy-4,5α-epoxy-6β-(N-methylbutyroxycarbamido)morphinan]", "EC50": 7040},
      {"smiles": "O=C(CCCCCc1ccccc1)N(CC1CCCCC1)[C@@H]1CC[C@@]2(O)[C@H]3Cc4ccc(O)c5c4[C@@]2(CCN3CC2CC2)[C@H]1O5", "note": "[Compound 71, 17-cyclopropylmethyl-3,14β-dihydroxy-4,5α-epoxy-6β-(N-cyclohexylmethyl-6-phenylhexanoamido)morphinan]", "EC50": 100},
      {"smiles": "CC(C)CN(C(=O)CCCCCCCc1ccccc1)[C@@H]1CC[C@@]2(O)[C@H]3Cc4ccc(O)c5c4[C@@]2(CCN3CC2CC2)[C@H]1O5", "note": "[Compound 59, 17-cyclopropylmethyl-3,14β-dihydroxy-4,5α-epoxy-6β-(N-isobutyl-8-phenyloctanoamido) morphinan]", "EC50": 480},
      {"smiles": "O=C(CCc1ccccc1)O[C@H]1CC[C@@]2(O)[C@H]3Cc4ccc(O)c5c4[C@@]2(CCN3CC2CC2)[C@H]1O5", "note": "[Compound 113, 17-cyclopropylmethyl-3,14β-dihydroxy-4,5α-epoxy-6α-(3-phenylpropionyloxy)morphinanan]", "EC50": 530},
      {"smiles": "CN([C@H]1CC[C@@]2(O)[C@H]3Cc4ccc(O)c5c4[C@@]2(CCN3CC2CC2)[C@H]1O5)S(=O)(=O)Cc1ccccc1", "note": "[Compound 112, 17-cyclopropylmethyl-3,14β-dihydroxy-4,5α-epoxy-6α-(N-methyl-phenylmethanesulfonamido)morphinan]", "EC50": 1450},
      {"smiles": "O=C(/C=C/c1cccc(C(F)(F)F)c1)N(CCCc1ccccc1)[C@@H]1CC[C@@]2(O)[C@H]3Cc4ccc(O)c5c4[C@@]2(CCN3CC2CC2)[C@H]1O5", "note": "[Compound 69, 17-cyclopropylmethyl-3,14β-dihydroxy-4,5α-epoxy-6β-[N-(3-phenylpropyl)-3-trifluoromethylcinnamamido]-morphinan]", "EC50": 160},
      {"smiles": "CCN(Cc1ccccc1)[C@@H]1CC[C@@]2(O)[C@H]3Cc4ccc(O)c5c4[C@@]2(CCN3CC2CC2)[C@H]1O5", "note": "[Compound 5, 17-cyclopropylmethyl-3,14β-dihydroxy-4,5α-epoxy-6β-(N-ethylbenzylamino)morphinan]", "EC50": 24600},
      {"smiles": "CN(C(=O)Cc1ccc2ccccc2c1)[C@@H]1CC[C@@]2(O)[C@H]3Cc4ccc(O)c5c4[C@@]2(CCN3CC2CC2)[C@H]1O5", "note": "[Compound 83, 17-cyclopropylmethyl-3,14β-dihydroxy-4,5α-epoxy-6β-(N-methyl-2-naphthylacetoamido)morphinan]", "EC50": 4690},
      {"smiles": "CC(C)CN(C(=O)CCCCCc1ccccc1)[C@@H]1CC[C@@]2(O)[C@H]3Cc4ccc(O)c5c4[C@@]2(CCN3CC2CC2)[C@H]1O5", "note": "[Compound 58, 17-cyclopropylmethyl-3,14β-dihydroxy-4,5α-epoxy-6β-(N-isobutyl-6-phenylhexanoamido)morphinan]", "EC50": 100},
      {"smiles": "O=C(Cc1ccc(Cl)c(Cl)c1)N[C@H]1CC[C@@]2(O)[C@H]3Cc4ccc(O)c5c4[C@@]2(CCN3CC2CC2)[C@H]1O5", "note": "[Compound 36, 17-cyclopropylmethyl-3,14β-dihydroxy-4,5α-epoxy-6α-(3,4-dichlorophenylacetoamido) morphinan]", "EC50": 1010},
      {"smiles": "CC(C)CN(C(=O)CCCCC(=O)c1ccccc1)[C@@H]1CC[C@@]2(O)[C@H]3Cc4ccc(O)c5c4[C@@]2(CCN3CC2CC2)[C@H]1O5", "note": "[Compound 61, 17-cyclopropylmethyl-3,14β-dihydroxy-4,5α-epoxy-6β-(N-isobutyl-5-benzoylpentanoamido)morphinan]", "EC50": 2220},
      {"smiles": "COc1cccc(/C=C/C(=O)N(C)[C@@H]2CC[C@@]3(O)[C@H]4Cc5ccc(O)c6c5[C@@]3(CCN4CC3CC3)[C@H]2O6)c1", "note": "[Compound 50, 17-cyclopropylmethyl-3,14β-dihydroxy-4,5α-epoxy-6β-(N-methyl-3-methoxycinnamamido)morphinan]", "EC50": 3440},
      {"smiles": "CN(C(=O)/C=C/c1ccco1)[C@@H]1CC[C@@]2(O)[C@H]3Cc4ccc(O)c5c4[C@@]2(CCN3CC2CC2)[C@H]1O5", "note": "(relative stereo) [Compound 53, 17-cyclopropylmethyl-3,14β-dihydroxy-4,5α-epoxy-6β-[N-methyl-trans-3-(2-furyl)acrylamido]morphinan]", "EC50": 18200},
      {"smiles": "CN(C(=O)/C=C/c1ccsc1)[C@@H]1CC[C@@]2(O)[C@H]3Cc4ccc(O)c5c4[C@@]2(CCN3CC2CC2)[C@H]1O5", "note": "(relative stereo) [Compound 54, 17-cyclopropylmethyl-3,14β-dihydroxy-4,5α-epoxy-6β-[N-methyl-trans-3-(3-thienyl)acrylamido]morphinan]", "EC50": 13500},
      {"smiles": "CN(C(=O)Cc1cccc2ccccc12)[C@@H]1CC[C@@]2(O)[C@H]3Cc4ccc(O)c5c4[C@@]2(CCN3CC2CC2)[C@H]1O5", "note": "[Compound 86, 17-cyclopropylmethyl-3,14β-dihydroxy-4,5α-epoxy-6β-(N-methyl-1-naphthylacetoamido)morphinan]", "EC50": 7360},
      {"smiles": "O=C(CCCCCc1ccccc1)N(CCCCc1ccccc1)[C@@H]1CC[C@@]2(O)[C@H]3Cc4ccc(O)c5c4[C@@]2(CCN3CC2CC2)[C@H]1O5", "note": "[Compound 73, 17-cyclopropylmethyl-3,14β-dihydroxy-4,5α-epoxy-6β-[N-(4-phenylbutyl)-6-phenylhexanoamido)morphinan]", "EC50": 140},
      {"smiles": "CCCCCN(Cc1ccccc1)[C@@H]1CC[C@@]2(O)[C@H]3Cc4ccc(O)c5c4[C@@]2(CCN3CC2CC2)[C@H]1O5", "note": "[Compound 9, 17-cyclopropylmethyl-3,14β-dihydroxy-4,5α-epoxy-6β-(N-pentylbenzylamino)morphinan]", "EC50": 290},
      {"smiles": "Oc1ccc2c3c1O[C@H]1[C@H](N(CCc4ccccc4)Cc4ccccc4)CC[C@@]4(O)[C@@H](C2)N(CC2CC2)CC[C@]314", "note": "[Compound 10, 17-cyclopropylmethyl-3,14β-dihydroxy-4,5α-epoxy-6β-(N-2-phenethylbenzylamino)morphinan]", "EC50": 280},
      {"smiles": "CN(Cc1ccccc1)[C@H]1CC[C@@]2(O)[C@H]3Cc4ccc(O)c5c4[C@@]2(CCN3CC2CC2)[C@H]1O5", "note": "[Compound 95, 17-cyclopropylmethyl-3,14β-dihydroxy-4,5α-epoxy-6α-(N-methylbenzylamino)morphinan]", "EC50": 560},
      {"smiles": "Oc1ccc2c3c1O[C@H]1[C@H](N(CCCCc4ccccc4)Cc4ccccc4)CC[C@@]4(O)[C@@H](C2)N(CC2CC2)CC[C@]314", "note": "[Compound 13, 17-cyclopropylmethyl-3,14β-dihydroxy-4,5α-epoxy-6β-(N-4-phenylbutylbenzylamino) morphinan]", "EC50": 210},
      {"smiles": "CC(C)N(Cc1ccccc1)[C@@H]1CC[C@@]2(O)[C@H]3Cc4ccc(O)c5c4[C@@]2(CCN3CC2CC2)[C@H]1O5", "note": "[Compound 6, 17-cyclopropylmethyl-3,14β-dihydroxy-4,5α-epoxy-6β-(N-isopropylbenzylamino)morphinan]", "EC50": 1930},
      {"smiles": "CN(C(=O)/C=C/c1ccccc1C(F)(F)F)[C@@H]1CC[C@@]2(O)[C@H]3Cc4ccc(O)c5c4[C@@]2(CCN3CC2CC2)[C@H]1O5", "note": "[Compound 55, 17-cyclopropylmethyl-3,14β-dihydroxy-4,5α-epoxy-6β-(N-methyl-2-trifluoromethylcinnamamido)morphinan]", "EC50": 1730},
      {"smiles": "CN(C(=O)/C=C/c1ccc(C(F)(F)F)cc1)[C@@H]1CC[C@@]2(O)[C@H]3Cc4ccc(O)c5c4[C@@]2(CCN3CC2CC2)[C@H]1O5", "note": "[Compound 56, 17-cyclopropylmethyl-3,14β-dihydroxy-4,5α-epoxy-6β-(N-methyl-4-trifluoromethylcinnamamido)morphinan]", "EC50": 1080},
      {"smiles": "Oc1ccc2c3c1O[C@H]1[C@H](N(Cc4ccccc4)CC(c4ccccc4)c4ccccc4)CC[C@@]4(O)[C@@H](C2)N(CC2CC2)CC[C@]314", "note": "[Compound 14, 17-cyclopropylmethyl-3,14β-dihydroxy-4,5α-epoxy-6β-[N-(2,2-diphenylethyl)benzylamino)morphinan]", "EC50": 110},
      {"smiles": "CN(C(=O)Cc1ccccc1)[C@@H]1CC[C@@]2(O)[C@H]3Cc4ccc(O)c5c4[C@@]2(CCN3CC2CC2)[C@H]1O5", "note": "[Compound 47, 17-cyclopropylmethyl-3,14β-dihydroxy-4,5α-epoxy-6β-(N-methylphenylacetoamido)morphinan]", "EC50": 17100},
      {"smiles": "CN(C(=O)CCC1CCCC1)[C@@H]1CC[C@@]2(O)[C@H]3Cc4ccc(O)c5c4[C@@]2(CCN3CC2CC2)[C@H]1O5", "note": "[Compound 51, 17-cyclopropylmethyl-3,14β-dihydroxy-4,5α-epoxy-6β-(N-methyl-3-cyclopentylpropioamido)morphinan]", "EC50": 13600},
      {"smiles": "CN(C(=O)Cc1csc2ccccc12)[C@@H]1CC[C@@]2(O)[C@H]3Cc4ccc(O)c5c4[C@@]2(CCN3CC2CC2)[C@H]1O5", "note": "[Compound 87, 17-cyclopropylmethyl-3,14β-dihydroxy-4,5α-epoxy-6β-(N-methyl-3-benzo[b]thienylacetoamrido)morphinan]", "EC50": 2150},
      {"smiles": "CC(C)CN(C(=O)CCCCCc1ccccc1)[C@H]1CC[C@@]2(O)[C@H]3Cc4ccc(O)c5c4[C@@]2(CCN3CC2CC2)[C@H]1O5", "note": "[Compound 37, 17-cyclopropylmethyl-3,14β-dihydroxy-4,5α-epoxy-6α-(N-isobutyl-6-phenylhexanoamido)morphinan]", "EC50": 60},
      {"smiles": "CCCCN(Cc1ccccc1)[C@@H]1CC[C@@]2(O)[C@H]3Cc4ccc(O)c5c4[C@@]2(CCN3CC2CC2)[C@H]1O5", "note": "[Compound 8, 17-cyclopropylmethyl-3,14β-dihydroxy-4,5α-epoxy-6β-(N-butylbenzylamino)morphinan]", "EC50": 1200}
    ]}
  ]
}
